{
  "source": "paper PMC7887271",
  "about": "“Fast acting allosteric phosphofructokinase inhibitors block trypanosome glycolysis and cure acute African trypanosomiasis in mice” (Nature Communications, 2021)",
  "key": {"T. b. gambiense": {"test_system": "T. b. gambiense", "test": "EC50 against in vitro cultured T. b. gambiense (STMI)", "format": "cell-based", "details": "Trypanosoma brucei"}, "T. b. brucei Lister 427": {"test_system": "T. b. brucei Lister 427", "test": "Wash-out studies, Lister 427", "format": "cell-based", "details": "concentrations greater than 2 to 4 µM, exposure longer than 4-6 hours, 3 days in drug free medium", "procedure": "In order to estimate a killing-dose for in vivo trials, a series of washout experiments were carried out: parasites were incubated with a given concentration of compound before washing out the drug and determining whether the parasites were still viable and able to proliferate. […] The existence of a small population of parasites more resistant to the effects of the CTCB compounds might be explained by subpopulations of parasites being present at different stages of the cell cycle. The parasite cultures used in the killing experiments are not synchronised, and it is likely that ATP requirement varies depending on cell cycle phase and a subpopulation with lower ATP requirement may be less susceptible to the CTCB compounds, however, this phenomenon needs further investigation.\nIn vitro ‘wash-out’ studies were performed to determine the reversibility of the action of the CTCB compounds on trypanosomes, after a certain exposure time, and thus to assess whether the compounds have a trypanocidal or trypanostatic effect. These experiments were carried out with both the T. b. brucei Lister 427 and T. b. brucei GVR35-luc strains. […] The cell suspensions were then incubated under regular culture conditions for 3 days and parasite growth monitored daily by light microscopy. […]"}, "[1]": {"test": "Human hepatocytes intrinsic clearance", "format": "in vitro ADME", "excerpt": "Methods are described in Supplementary Methods 5 and 6. Enzyme assay results are means ± SD in multiple assays. ADME results are averages of n = 2 or 3 measurements in individual assays."}, "TbPFK": {"molecular_target": "T1, TbPFK (Trypanosoma brucei brucei, UniProt O15648)", "T1 construct": "made in house; host or cells: Escherichia coli C41 (pET28a, codon optimised gene)", "T1 sequence (O15648 1-487)": "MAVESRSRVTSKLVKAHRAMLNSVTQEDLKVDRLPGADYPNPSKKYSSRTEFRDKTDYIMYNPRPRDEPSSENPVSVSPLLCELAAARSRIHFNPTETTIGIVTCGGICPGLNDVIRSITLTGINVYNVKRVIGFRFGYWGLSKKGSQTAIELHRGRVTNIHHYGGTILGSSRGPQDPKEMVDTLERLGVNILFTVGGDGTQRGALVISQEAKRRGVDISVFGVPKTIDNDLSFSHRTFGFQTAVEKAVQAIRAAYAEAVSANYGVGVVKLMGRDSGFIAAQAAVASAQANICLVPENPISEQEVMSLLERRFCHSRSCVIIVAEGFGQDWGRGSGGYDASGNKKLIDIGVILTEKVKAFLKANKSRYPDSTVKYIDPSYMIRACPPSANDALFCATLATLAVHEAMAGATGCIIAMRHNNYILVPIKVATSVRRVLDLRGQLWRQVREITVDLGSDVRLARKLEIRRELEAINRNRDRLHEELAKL", "test": "Isothermal titration calorimetry (ITC)", "format": "binding", "details": "25 °C"}, "[2]": {"test": "Brain and plasma concentrations in mice after oral dose", "format": "in vivo", "details": "female, CD-1, mouse, single oral dose of 50 mg kg^−1, 2 h", "procedure": "These values for concentrations of free compound in the brain give a Kp,uu value of 0.6 (defined as the ratio of unbound compound in brain to unbound compound in plasma). This ratio provides an estimate of the amount of free drug in the brain interstitial fluid as being just over half the free concentration in the blood.\nBlood samples were collected from terminal cardiac puncture at 0.08 (IV only), 0.25, 0.5, 1 (PO only), 2, 4, 8 and 24 hour time points. The whole blood was centrifuged to obtain plasma. Brains were also collected following cardiac perfusion from both sets of animals at 2 hours. Analysis of the biological samples was carried out by the company Selcia. Plasma proteins were precipitated by addition of PBS (1 volume) followed by 3 volumes of acetonitrile containing internal standard (verapamil). Following filtration through a protein precipitation plate the eluent was dried under nitrogen and re-suspended in mobile phase prior to analysis. Individual brains were homogenised in PBS and diluted to 10% w/v and divided into aliquots consisting of brain homogenate (1 volume, 0.3 ml) and 3 volumes (0.9 ml) of acetonitrile containing internal standard. Samples were centrifuged and supernatants removed and taken through a protein precipitation plate alongside an appropriate standard. […] Eluents were analysed by LC-MS/MS using a Phenomenex Gemini NX column (C18,30 x 2.1 mm, 3 micron). […]"}, "CYP2D6": {"molecular_target": "T2, CYP2D6 (Homo sapiens, UniProt P10635)", "T2 construct": "purchased BD Biosciences", "T2 sequence (P10635 whole entry, canonical isoform)": "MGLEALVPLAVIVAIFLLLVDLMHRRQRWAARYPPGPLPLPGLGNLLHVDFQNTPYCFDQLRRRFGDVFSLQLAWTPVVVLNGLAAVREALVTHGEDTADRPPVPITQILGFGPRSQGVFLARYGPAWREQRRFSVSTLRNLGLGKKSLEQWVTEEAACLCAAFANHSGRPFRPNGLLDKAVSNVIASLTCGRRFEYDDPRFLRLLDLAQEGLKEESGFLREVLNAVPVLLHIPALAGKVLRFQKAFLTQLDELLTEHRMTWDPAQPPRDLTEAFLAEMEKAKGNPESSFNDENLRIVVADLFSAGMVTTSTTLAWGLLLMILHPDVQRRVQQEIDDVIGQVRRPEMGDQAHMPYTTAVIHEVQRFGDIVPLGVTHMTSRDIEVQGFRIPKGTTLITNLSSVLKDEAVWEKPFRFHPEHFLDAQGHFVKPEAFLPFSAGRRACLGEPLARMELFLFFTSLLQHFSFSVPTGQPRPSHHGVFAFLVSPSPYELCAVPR", "test": "Inhibition of CYP2D6", "format": "in vitro ADME", "details": "CYP450 isoform inhibition kit (BD Biosciences), probe AMMC", "procedure": "A HepG2 cytotoxicity assay was used to determine a cellular selectivity index. HepG2 cells were seeded into 96-well plates in EMEM medium. Compounds were assessed for their effect upon cellular viability (Supplementary Methods 5.1). Inhibition of CYP450 was determined using kits from BD Biosciences (Supplementary Methods 5.2). Metabolic stability was determined using mouse […] tested at a single concentration of 5 µM. Plasma protein binding was determined using mouse and human plasma at a single concentration of 10 µM (Supplementary Methods 5.4). All PK studies in mice were carried out by Pharmidex (Supplementary Methods 6.1).\nThe compounds were investigated for their inhibitory effect on cytochrome P450 (CYP450) activity using five CYP450 isoforms (with fluorescent substrates in brackets): 3A4 (two substrates, BFC and DBF), 2D6 (AMMC), 2C9 (MFC), 2C19 (CEC) and 1A2 (CEC). Kits from BD Biosciences were used along with the method described by the manufacturer. […] Fluorescence was measured using a SpectraMax M5 plate reader."}},
  "note": "pEC50, pKd: −log10 of the molar value. Like-named read-outs stand apart in the source and are kept apart here.",
  "data": [
    {"smiles": "CN(C)CCn1ccc2c(ccn2Cc2ccc(Cl)c(Br)c2)c1=O", "note": "[CTCB-470, 1-[(3-Bromo-4-chlorophenyl)methyl]-5-[2-(dimethylamino)ethyl] pyrrolo[3,2-c]pyridin-4-one]", "values": [
      {"measurement": "pEC50", "setting": "T. b. gambiense", "result": 6.85},
      {"measurement": "wash-out: grow-back after removal of drug", "setting": "T. b. brucei Lister 427", "result": "no grow-back"}
    ]},
    {"smiles": "CN(C)CCn1ccc2c(ccn2Cc2ccc(Cl)c(Cl)c2)c1=O", "note": "[CTCB-405, 1-[(3,4-Dichlorophenyl)methyl]-5-[2-(dimethylamino)ethyl] pyrrolo[3,2-c]pyridin-4-one]", "values": [
      {"measurement": "Human hepatocytes Clint", "setting": "[1]", "result": 2.3, "unit": "µL min^−1 per 10^6 cells"},
      {"measurement": "pKd", "setting": "TbPFK", "result": 7.04},
      {"measurement": "TΔS contribution", "setting": "TbPFK; ITC", "result": -4.03, "unit": "kcal/mol"},
      {"measurement": "ΔG", "setting": "TbPFK; ITC", "result": -9.57, "unit": "kcal/mol"},
      {"measurement": "ΔH", "setting": "TbPFK; ITC", "result": -13.6, "unit": "kcal/mol"},
      {"measurement": "concentration at 2 h", "setting": "[2]; brain homogenate, read-out: mean concentration in brain homogenate", "result": 1510, "unit": "ng/g"},
      {"measurement": "concentration at 2 h", "setting": "[2]; plasma, read-out: mean plasma concentration", "result": 366, "unit": "ng/mL"},
      {"measurement": "inhibition at 10 µM", "setting": "CYP2D6", "result": 60, "unit": "%"},
      {"measurement": "pEC50", "setting": "T. b. gambiense", "result": 6.72},
      {"measurement": "wash-out: grow-back after removal of drug", "setting": "T. b. brucei Lister 427", "result": "no grow-back"}
    ]}
  ]
}
